Values quoted from earlier work, collected in patent publication US20020156056A1, “Oral fast-dissolving compositions for dopamine agonists” (priority 1997, published 2002).

Experiments:
[1] = in vivo

| Compound | Adverse effects of intranasal administration (intranasal) | Adverse findings in long-term studies of oral tablets (oral tablets, studies stopped after 7-10 days) | Adverse effects of sub-lingual tablets (sub-lingual tablets, prolonged use) | Share of the drug converted to dopamine in peripheral tissues [1] | Share of the drug that enters the brain [1] |
| --- | --- | --- | --- | --- | --- |
| CN1CCc2cccc3c2C1Cc1ccc(O)c(O)c1-3 (centres unmarked) [apomorphine, 5,6,6a,7-tetrahydro-6-methyl-4H-dibenzo[de,g]quinoline-10,11-diol] | transient nasal blockage, burning sensation and swollen nose and lips | unexplained rises in blood urea nitrogen | severe stomatitis on prolonged use with buccal mucosal ulceration in half the patients treated |  |  |
| N[C@@H](Cc1ccc(O)c(O)c1)C(=O)O [levodopa] |  |  |  | about 95% | less than 1% |
